In the test the target is human F508del-CFTR (Homo sapiens, UniProt P13569, DEL508-508). The test can be described thus: F508del-CFTR cell surface expression (corrector activity), DiscoveRx ß-galactosidase complementation chemiluminescence assay in recombinant U2OS cell line.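 On all read-outs here: U2OS cells co-expressing ProLink-tagged F508del-CFTR and a membrane-anchored enzyme acceptor, where more surface CFTR restores β-galactosidase activity measured by chemiluminescence.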 Particulars: U2OS cells, 16h compound incubation; for EC50: EC50, F508del-CFTR cell surface expression, geomean of several measurements; for Emax: U2OS, in relation to the Emax of the corrector lumacaftor (=100%), arithmetic mean.
Chain of human F508del-CFTR (P13569 with tags, fused parts or gaps DEL508-508): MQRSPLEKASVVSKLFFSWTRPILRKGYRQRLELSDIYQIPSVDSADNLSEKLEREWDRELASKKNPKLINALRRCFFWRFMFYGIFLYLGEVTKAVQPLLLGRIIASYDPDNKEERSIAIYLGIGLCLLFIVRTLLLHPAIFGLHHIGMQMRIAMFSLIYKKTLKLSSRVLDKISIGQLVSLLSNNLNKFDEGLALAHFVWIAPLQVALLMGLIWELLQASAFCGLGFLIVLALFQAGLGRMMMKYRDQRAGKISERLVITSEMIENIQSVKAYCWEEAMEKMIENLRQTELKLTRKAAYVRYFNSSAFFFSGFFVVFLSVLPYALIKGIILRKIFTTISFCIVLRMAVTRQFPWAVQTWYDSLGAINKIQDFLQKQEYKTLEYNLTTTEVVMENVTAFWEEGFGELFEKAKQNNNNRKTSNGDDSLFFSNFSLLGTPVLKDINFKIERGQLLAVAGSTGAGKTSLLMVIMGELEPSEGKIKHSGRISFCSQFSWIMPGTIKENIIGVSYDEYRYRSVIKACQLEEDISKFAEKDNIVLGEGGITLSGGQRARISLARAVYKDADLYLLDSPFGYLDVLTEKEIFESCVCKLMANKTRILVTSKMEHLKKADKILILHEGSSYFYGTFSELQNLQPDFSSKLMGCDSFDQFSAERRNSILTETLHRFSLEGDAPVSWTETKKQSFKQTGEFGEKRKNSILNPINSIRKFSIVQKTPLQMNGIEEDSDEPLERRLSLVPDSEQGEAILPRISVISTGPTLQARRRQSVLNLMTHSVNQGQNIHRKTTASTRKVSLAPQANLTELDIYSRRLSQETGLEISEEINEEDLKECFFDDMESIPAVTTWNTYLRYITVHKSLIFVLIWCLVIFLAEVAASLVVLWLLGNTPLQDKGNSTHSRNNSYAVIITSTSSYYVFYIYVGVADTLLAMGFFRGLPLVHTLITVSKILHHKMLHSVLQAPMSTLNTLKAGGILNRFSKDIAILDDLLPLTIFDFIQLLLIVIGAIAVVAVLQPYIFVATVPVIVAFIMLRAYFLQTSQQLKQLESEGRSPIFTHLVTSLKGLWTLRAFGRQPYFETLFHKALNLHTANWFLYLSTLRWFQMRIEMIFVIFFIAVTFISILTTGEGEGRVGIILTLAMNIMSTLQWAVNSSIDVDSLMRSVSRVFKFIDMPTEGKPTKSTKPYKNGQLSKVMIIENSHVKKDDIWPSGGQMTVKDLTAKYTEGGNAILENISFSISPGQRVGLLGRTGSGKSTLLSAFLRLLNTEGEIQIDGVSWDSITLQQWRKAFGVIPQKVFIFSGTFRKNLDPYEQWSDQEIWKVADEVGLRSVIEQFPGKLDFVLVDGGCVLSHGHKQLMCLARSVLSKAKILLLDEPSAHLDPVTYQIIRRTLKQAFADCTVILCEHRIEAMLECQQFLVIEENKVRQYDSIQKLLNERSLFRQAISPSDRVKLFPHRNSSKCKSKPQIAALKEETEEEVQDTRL

A word on the EC50: it is the concentration at which the effect is half-maximal. One may read the Emax as the maximal effect, on the per cent scale that the assay sets. Turning to `Cc1cc2c3c(ccc2cn1)OC[C@@H](Cc1ccccc1)NC(=O)C1(CC(F)(F)C1)N(C)C(=O)[C@H](CC(C)C)N(C)C(=O)C[C@@H](C(=O)NCCn1nnc(C2CC2)n1)NC3=O` [Example 955, (3′S,7′S,13′R)-13′-benzyl-N-(2-(5-cyclopropyl-2H-tetrazol-2-yl)ethyl)-3,3-difluoro-7′-isobutyl-6′,9′,20′-trimethyl-1′,5′,8′,11′-tetraoxo-2′,3′,4′,5′,6′,7′,8′,9′,11′,12′,13′,14′-dodecahydro-1′H-spiro[cyclobutane-1,10′-[1]oxa[4,7,10,14]tetraazacycloheptadecino[16,17-f]isoquinoline]-3′-carboxamide], the concentration for a half-maximal effect (EC50) was 381 nM and the maximal effect (Emax) is 394%.
Taken in the same sequence, the figures for `Cc1cc2c3c(ccc2cn1)OC[C@@H](Cc1ccccc1)NC(=O)[C@@H](CC(F)(F)F)N(C)C(=O)[C@H](CC(C)C)N(C)C(=O)C[C@@H](C(=O)NCCc1cc(C2CC2)no1)NC3=O` [Example 956, (3S,7S,10R,13R)-13-benzyl-N-(2-(3-cyclopropylisoxazol-5-yl)ethyl)-7-isobutyl-6,9,20-trimethyl-1,5,8,11-tetraoxo-10-(2,2,2-trifluoroethyl)-1,2,3,4,5,6,7,8,9,10,11,12,13,14-tetradecahydro-[1]oxa[4,7,10,14]tetraazacycloheptadecino[16,17-f]isoquinoline-3-carboxamide] were 508 nM and 412%.
The matching figures for `COc1cc(CCNC(=O)[C@@H]2CC(=O)N(C)[C@@H](CC(C)C)C(=O)N(C)[C@H](CC(F)(F)F)C(=O)N[C@H](Cc3ccccc3)COc3ccc4cnc(C)cc4c3C(=O)N2)on1` [Example 957, (3S,7S,10R,13R)-13-benzyl-7-isobutyl-N-(2-(3-methoxyisoxazol-5-yl)ethyl)-6,9,20-trimethyl-1,5,8,11-tetraoxo-10-(2,2,2-trifluoroethyl)-1,2,3,4,5,6,7,8,9,10,11,12,13,14-tetradecahydro-[1]oxa[4,7,10,14]tetraazacycloheptadecino[16,17-f]isoquinoline-3-carboxamide]: 192 nM and 451%.
Regarding `Cc1cc2c3c(ccc2cn1)OC[C@@H](Cc1ccccc1)NC(=O)[C@@H](CC(F)(F)F)N(C)C(=O)[C@H](CC(C)C)N(C)C(=O)C[C@@H](C(=O)NCCc1cc(C2CC2)on1)NC3=O` [Example 958, (3S,7S,10R,13R)-13-benzyl-N-(2-(5-cyclopropylisoxazol-3-yl)ethyl)-7-isobutyl-6,9,20-trimethyl-1,5,8,11-tetraoxo-10-(2,2,2-trifluoroethyl)-1,2,3,4,5,6,7,8,9,10,11,12,13,14-tetradecahydro-[1]oxa[4,7,10,14]tetraazacycloheptadecino[16,17-f]isoquinoline-3-carboxamide], the EC50 stood at 338 nM and the Emax was 439%.
On to `Cc1cc2c3c(ccc2cn1)OC[C@@H](Cc1ccccc1)NC(=O)[C@@H](CC(F)(F)F)N(C)C(=O)[C@H](CC(C)C)N(C)C(=O)C[C@@H](C(=O)NCCn1nnc(C2CC2)n1)NC3=O` [Example 959, (3S,7S,10R,13R)-13-benzyl-N-(2-(5-cyclopropyl-2H-tetrazol-2-yl)ethyl)-7-isobutyl-6,9,20-trimethyl-1,5,8,11-tetraoxo-10-(2,2,2-trifluoroethyl)-1,2,3,4,5,6,7,8,9,10,11,12,13,14-tetradecahydro-[1]oxa[4,7,10,14]tetraazacycloheptadecino[16,17-f]isoquinoline-3-carboxamide], for which the concentration for a half-maximal effect (EC50) was determined as 222 nM and the Emax stood at 413%.
Turning to `COc1noc(CCNC(=O)[C@@H]2CC(=O)N(C)[C@@H](CC(C)C)C(=O)N(C)[C@H](CC(F)(F)F)C(=O)N[C@H](Cc3ccccc3)COc3ccc4cnc(C)cc4c3C(=O)N2)c1F` [Example 960, (3S,7S,10R,13R)-13-benzyl-N-(2-(4-fluoro-3-methoxyisoxazol-5-yl)ethyl)-7-isobutyl-6,9,20-trimethyl-1,5,8,11-tetraoxo-10-(2,2,2-trifluoroethyl)-1,2,3,4,5,6,7,8,9,10,11,12,13,14-tetradecahydro-[1]oxa[4,7,10,14]tetraazacycloheptadecino[16,17-f]isoquinoline-3-carboxamide], the 50% effective concentration (EC50) turned out to be 85 nM and the maximum response (Emax) came to 507%.
The matching figures for `COCCn1cc(CCNC(=O)[C@@H]2CC(=O)N(C)[C@@H](CC(C)C)C(=O)N(C)[C@H](Cc3nc(C(F)(F)F)no3)C(=O)N[C@H](Cc3ccccc3)COc3cc(C)nc(OC)c3C(=O)N2)cn1` [Example 961, (3R,6R,9S,13S)-3-benzyl-9-isobutyl-16-methoxy-N-(2-(1-(2-methoxyethyl)-1H-pyrazol-4-yl)ethyl)-7,10,18-trimethyl-5,8,11,15-tetraoxo-6-((3-(trifluoromethyl)-1,2,4-oxadiazol-5-yl)methyl)-2,3,4,5,6,7,8,9,10,11,12,13,14,15-tetradecahydropyrido[3,4-p][1]oxa[4,7,10,14]tetraazacycloheptadecine-13-carboxamide]: 353 nM and 453%.
As for `COCCn1cc(CCNC(=O)[C@@H]2CC(=O)N(C)[C@@H](CC(C)C)C(=O)N(C)[C@H](Cc3nc(C(F)(F)F)no3)C(=O)N[C@H](Cc3ccccc3)COc3ccc4ncc(F)cc4c3C(=O)N2)cn1` [Example 962, (3S,7S,10R,13R)-13-benzyl-20-fluoro-7-isobutyl-N-(2-(1-(2-methoxyethyl)-1H-pyrazol-4-yl)ethyl)-6,9-dimethyl-1,5,8,11-tetraoxo-10-((3-(trifluoromethyl)-1,2,4-oxadiazol-5-yl)methyl)-1,2,3,4,5,6,7,8,9,10,11,12,13,14-tetradecahydro-[1]oxa[4,7,10,14]tetraazacycloheptadecino[16,17-f]quinoline-3-carboxamide], the concentration for a half-maximal effect (EC50) was determined as 103 nM and the maximum response (Emax) is 453%.
With `COc1noc(CCNC(=O)[C@@H]2CC(=O)N(C)[C@@H](CC(C)C)C(=O)N(C)C3(CC3)C(=O)N[C@H](Cc3ccccc3)COc3ccc4ncc(F)cc4c3C(=O)N2)c1F` [Example 963, (3′S,7′S,13′R)-13′-benzyl-20′-fluoro-N-(2-(4-fluoro-3-methoxyisoxazol-5-yl)ethyl)-7′-isobutyl-6′,9′-dimethyl-1′,5′,8′,11′-tetraoxo-2′,3′,4′,5′,6′,7′,8′,9′,11′,12′,13′,14′-dodecahydro-1′H-spiro[cyclopropane-1,10′-[1]oxa[4,7,10,14]tetraazacycloheptadecino[16,17-f]quinoline]-3′-carboxamide], the concentration giving a half-maximal response (EC50) is 267 nM and the Emax came to 447%.
The matching figures for `CC(C)C[C@H]1C(=O)N(C)[C@H](Cc2nc(C(F)(F)F)no2)C(=O)N[C@H](Cc2ccccc2)COc2ccc3ncc(F)cc3c2C(=O)N[C@H](C(=O)NCCc2nc(C3CC3)no2)CC(=O)N1C` [Example 964, (3S,7S,10R,13R)-13-benzyl-N-(2-(3-cyclopropyl-1,2,4-oxadiazol-5-yl)ethyl)-20-fluoro-7-isobutyl-6,9-dimethyl-1,5,8,11-tetraoxo-10-((3-(trifluoromethyl)-1,2,4-oxadiazol-5-yl)methyl)-1,2,3,4,5,6,7,8,9,10,11,12,13,14-tetradecahydro-[1]oxa[4,7,10,14]tetraazacycloheptadecino[16,17-f]quinoline-3-carboxamide]: 21 nM and 418%.
Regarding `Cc1cc(CCNC(=O)[C@@H]2CC(=O)N(C)[C@@H](CC(C)C)C(=O)N(C)[C@H](Cc3nc(C(F)(F)F)no3)C(=O)N[C@H](Cc3ccccc3)COc3ccc4ncc(F)cc4c3C(=O)N2)on1` [Example 965, (3S,7S,10R,13R)-13-benzyl-20-fluoro-7-isobutyl-6,9-dimethyl-N-(2-(3-methylisoxazol-5-yl)ethyl)-1,5,8,11-tetraoxo-10-((3-(trifluoromethyl)-1,2,4-oxadiazol-5-yl)methyl)-1,2,3,4,5,6,7,8,9,10,11,12,13,14-tetradecahydro-[1]oxa[4,7,10,14]tetraazacycloheptadecino[16,17-f]quinoline-3-carboxamide], the concentration for a half-maximal effect (EC50) was determined as 32 nM and the Emax amounted to 453%.
Turning to `CC(C)C[C@H]1C(=O)N(C)[C@H](Cc2nc(C(F)(F)F)no2)C(=O)N[C@H](Cc2ccccc2)COc2ccc3ncc(F)cc3c2C(=O)N[C@H](C(=O)NC[C@@H](O)c2nc(C3CC3)no2)CC(=O)N1C` [Example 966, (3S,7S,10R,13R)-13-benzyl-N-((R)-2-(3-cyclopropyl-1,2,4-oxadiazol-5-yl)-2-hydroxyethyl)-20-fluoro-7-isobutyl-6,9-dimethyl-1,5,8,11-tetraoxo-10-((3-(trifluoromethyl)-1,2,4-oxadiazol-5-yl)methyl)-1,2,3,4,5,6,7,8,9,10,11,12,13,14-tetradecahydro-[1]oxa[4,7,10,14]tetraazacycloheptadecino[16,17-f]quinoline-3-carboxamide], the concentration for a half-maximal effect (EC50) amounted to 82 nM and the Emax was found to be 404%.
Taken in the same sequence, the figures for `COc1noc(CCNC(=O)[C@@H]2CC(=O)N(C)[C@@H](CC(C)C)C(=O)N(C)[C@H](CC(F)F)C(=O)N[C@H](Cc3ccccc3)COc3ccc4ncc(F)cc4c3C(=O)N2)c1F` [Example 967, (3S,7S,10R,13R)-13-benzyl-10-(2,2-difluoroethyl)-20-fluoro-N-(2-(4-fluoro-3-methoxyisoxazol-5-yl)ethyl)-7-isobutyl-6,9-dimethyl-1,5,8,11-tetraoxo-1,2,3,4,5,6,7,8,9,10,11,12,13,14-tetradecahydro-[1]oxa[4,7,10,14]tetraazacycloheptadecino[16,17-f]quinoline-3-carboxamide] were 92 nM and 472%.
Taken in the same sequence, the figures for `COc1noc(CCNC(=O)[C@@H]2CC(=O)N(C)[C@@H](CC(C)C)C(=O)N(C)[C@H](CC(F)F)C(=O)N[C@H](Cc3ccccc3)COc3cc(C)nc(OC)c3C(=O)N2)c1F` [Example 968, (3R,6R,9S,13S)-3-benzyl-6-(2,2-difluoroethyl)-N-(2-(4-fluoro-3-methoxyisoxazol-5-yl)ethyl)-9-isobutyl-16-methoxy-7,10,18-trimethyl-5,8,11,15-tetraoxo-2,3,4,5,6,7,8,9,10,11,12,13,14,15-tetradecahydropyrido[3,4-p][1]oxa[4,7,10,14]tetraazacycloheptadecine-13-carboxamide] were 226 nM and 478%.

The values are drawn from patent publication US20240208992A1, “MACROCYCLES AS CFTR MODULATORS” (Idorsia Pharmaceuticals Ltd, priority 2021, published 2024).
